Where a name gives a salt, the structure may show the parent alone.
The compounds below were run on BLAB/c mouse (assay: Inhibitory effect on skin swelling response in mouse allergic dermatitis model). Settings: IgE anti-DNP sensitized mouse, DNFB-induced; 50 mg/kg orally before the induction; 24 hours after administration.
Format: in vivo
Method: This method was carried out in accordance with the literature “Inflamm. Res., 47, 506-511 (1998)”.
To each BLAB/c mouse (female, 7 weeks old, JAPAN CHARLES RIVER), mouse IgE anti-DNP antibody (2.5 mg/kg, SEIKAGAKU CORPORATION) was intravenously administered to passively sensitize the mouse. Twenty four hours later, 20 μL of 0.38% 2,4-dinitrofluorobenzene (DNFB, SIGMA) dissolved in acetone:olive oil (4:1) was applied to the auricle of the sensitized mouse to induce inflammation. The thickness of the auricle was measured with time till 24 hours after the induction with Digimatic Indicator (Mitutoyo), and the ear swelling ratio was calculated according to the following equation: Ear Swelling Ratio (%)=(A−B)/B×100
A: Thickness of the right auricle after the induction
B: Thickness of the right auricle before the induction
Each test compound was dissolved in phosphate buffered saline and orally administered at a dose of 50 mg/kg before the induction.

| Compound | Inhibition ratio of the ear swelling (swelling response of the auricle) [%] |
| --- | --- |
| COC1(c2ccc(/C=C/C[C@H](NC(=O)c3c(Cl)cccc3Cl)C(=O)[O-])cc2)CCOCC1.[Na+] [Example 78, (S,E)-2-(2,6-Dichlorobenzamido)-5-[4-(4-methoxytetrahydropyran-4-yl)-phenyl]pent-4-enoic acid sodium salt] | 62.5 |
| COC1(c2ccc(/C=C/CC(NC(=O)c3c(Cl)cccc3Cl)C(=O)O)cc2)CCOCC1 (centres unmarked) [Example 4, (E)-2-(2,6-Dichlorobenzamido)-5-[4-(4-methoxytetrahydropyran-4-yl)-phenyl]pent-4-enoic acid] | 79.8 |
| CN(c1ccc(/C=C/C[C@H](NC(=O)c2c(Cl)cccc2Cl)C(=O)O)cc1)c1ncccn1 [Example 80, (S,E)-2-(2,6-Dichlorobenzamido)-5-[4-(methyl-pyrimidin-2-ylamino)phenyl]pent-4-enoic acid] | 86.3 |
| CC(C)N(c1ccc(/C=C/CC(NC(=O)c2c(Cl)cccc2Cl)C(=O)O)cc1)c1ncccn1 (centres unmarked) [Example 28, (E)-2-(2,6-Dichlorobenzamido)-5-[4-(isopropyl-pyrimidin-2-ylamino)phenyl]pent-4-enoic acid] | 98.5 |
| CCOC1(c2ccc(/C=C/CC(NC(=O)c3c(Cl)cccc3Cl)C(=O)O)cc2)CCOCC1 (centres unmarked) [Example 6, (E)-2-(2,6-Dichlorobenzamido)-5-[4-(4-ethoxytetrahydropyran-4-yl)-phenyl]pent-4-enoic acid] | 91.2 |
| CC(C)N(c1ccc(/C=C/C[C@H](NC(=O)c2c(Cl)cccc2Cl)C(=O)[O-])cc1)c1ncccn1.[Na+] [Example 84, (S,E)-2-(2,6-Dichlorobenzamido)-5-[4-(isopropyl-pyrimidin-2-ylamino)phenyl]pent-4-enoic acid sodium salt] | 66.9 |
| CN(c1ccc(/C=C/C[C@H](NC(=O)c2c(Cl)cccc2Cl)C(=O)[O-])cc1)c1ncccn1.[Na+] [Example 81, (S,E)-2-(2,6-Dichlorobenzamido)-5-[4-(methyl-pyrimidin-2-ylamino)phenyl]pent-4-enoic acid sodium salt] | 97.9 |
| CC(C)N(c1ccc(/C=C/C[C@H](NC(=O)c2c(Cl)cccc2Cl)C(=O)O)cc1)c1ncccn1 [Example 83, (S,E)-2-(2,6-Dichlorobenzamido)-5-[4-(isopropyl-pyrimidin-2-ylamino)phenyl]pent-4-enoic acid] | 57.4 |
| COCCOc1ccc(/C=C/CC(NC(=O)c2ccc(CNS(=O)(=O)c3cc(Cl)cc(Cl)c3)cc2)C(=O)[O-])cc1.[Na+] (centres unmarked) [(XXII), (E)-2-(4-((3,5-dichlorophenylsulfonamide)methyl)benzamide)-5-(4-(2-methoxyethoxy)phenyl)pent-4-enoic acid sodium salt, reference compound] | 2.3 |
| CN(c1ccc(/C=C/CC(NC(=O)c2c(Cl)cccc2Cl)C(=O)O)cc1)c1ncccn1 (centres unmarked) [Example 22, (E)-2-(2,6-Dichlorobenzamido)-5-[4-(methyl-pyrimidin-2-ylamino)phenyl]pent-4-enoic acid] | 84.7 |
| COC1(c2ccc(/C=C/C[C@H](NC(=O)c3c(Cl)cccc3Cl)C(=O)O)cc2)CCOCC1 [Example 77, (S,E)-2-(2,6-Dichlorobenzamido)-5-[4-(4-methoxytetrahydropyran-4-yl)-phenyl]pent-4-enoic acid] | 85.8 |

Each compound was assayed on Jurkat cells (assay: Inhibitory effect on leukocyte functions: adhesion of Jurkat cells to ligand-expressing cells or ligand-immobilized plate). Settings: Homo sapiens, 0.5 h, read-out: IC50 (concentration at which the number of adherent cells is reduced by 50%).
Format: cell-based
Method: Jurkat cells which are a cell line originated from human acute T cell lymphoma were allowed to react with BCECF-AM at 37° C. for 20 minutes to fluorescently label the cells. The fluorescently labelled Jurkat cells were allowed to react with ligand-expressing cells or with a ligand-immobilized plate at 37° C. for 30 minutes. After removing non-adherent cells by washing, 1% NP40 was added to lyse the adherent cells, and fluorescence intensity was measured with Cytofluor 2300 (Millipore). From the obtained fluorescence intensity, the number of adherent cells was calculated. Each test compound was reacted with the Jurkat cells before the beginning of the adhesion reaction. In Table 18, the IC50 of each compound (i.e. the concentration at which the number of adherent cells is reduced by 50%) is shown.

| Compound | IC50 [µM] |
| --- | --- |
| O=C(NC(C/C=C/c1ccc(N(CC2CC2)c2ncccn2)cc1)C(=O)O)c1c(Cl)cccc1Cl (centres unmarked) [Example 53, (E)-5-[4-(Cyclopropylmethyl-pyrimidin-2-ylamino)phenyl]-2-(2,6-dichlorobenzamido)pent-4-enoic acid sodium salt] | 0.12 |
| CC(C)CN(c1ccc(/C=C/CC(NC(=O)c2c(Cl)cccc2Cl)C(=O)O)cc1)c1ncccn1 (centres unmarked) [Example 55, (E)-2-(2,6-Dichlorobenzamido)-5-[4-(isobutyl-pyrimidin-2-ylamino)phenyl]pent-4-enoic acid sodium salt] | 0.42 |
| CCCCN(c1ccc(/C=C/CC(NC(=O)c2c(Cl)cccc2Cl)C(=O)O)cc1)c1ncccn1 (centres unmarked) [Example 37, (E)-5-(4-Butyl-pyrimidin-2-yl-amino)-phenyl]-2-(2,6-dichlorobenzamido)-pent-4-enoic acid sodium salt] | 0.16 |
